Assay results as given in PMC4844176 (Xenobiotica; the fate of foreign compounds in biological …, 2015).
Values joined by “and” are separate entries in the source; they are usually repeats but may differ in a detail not shown here. Equal entries are not always repeated.

Legend:
[1] = Calculated concentration of drug in the lumen of the gut; design: species or system human; conditions: molar dose/250 mL
UGT1A4 = molecular target: T1, UGT1A4 (Homo sapiens, UniProt P22310); experiment: Inhibition by aprepitant of UGT1A4; type: in vitro ADME; conditions: UGT1A4 enzyme, probe imipramine
T1 sequence (P22310 29-534): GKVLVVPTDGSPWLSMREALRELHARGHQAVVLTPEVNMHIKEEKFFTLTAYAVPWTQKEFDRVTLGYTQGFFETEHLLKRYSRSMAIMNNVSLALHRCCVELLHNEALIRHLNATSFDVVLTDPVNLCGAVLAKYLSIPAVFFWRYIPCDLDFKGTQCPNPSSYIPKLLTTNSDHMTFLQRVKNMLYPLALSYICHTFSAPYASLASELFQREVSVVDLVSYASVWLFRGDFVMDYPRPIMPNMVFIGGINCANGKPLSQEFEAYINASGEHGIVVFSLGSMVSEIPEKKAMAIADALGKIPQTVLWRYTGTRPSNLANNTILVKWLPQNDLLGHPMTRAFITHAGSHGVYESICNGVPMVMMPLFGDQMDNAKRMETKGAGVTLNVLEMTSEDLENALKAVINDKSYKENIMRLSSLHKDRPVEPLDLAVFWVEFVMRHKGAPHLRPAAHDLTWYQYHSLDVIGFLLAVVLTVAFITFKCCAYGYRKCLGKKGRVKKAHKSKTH

UGT2B7 [2] = molecular target: T2, UGT2B7 (Homo sapiens, UniProt P16662); experiment: biochemical
T2 sequence (P16662 24-529): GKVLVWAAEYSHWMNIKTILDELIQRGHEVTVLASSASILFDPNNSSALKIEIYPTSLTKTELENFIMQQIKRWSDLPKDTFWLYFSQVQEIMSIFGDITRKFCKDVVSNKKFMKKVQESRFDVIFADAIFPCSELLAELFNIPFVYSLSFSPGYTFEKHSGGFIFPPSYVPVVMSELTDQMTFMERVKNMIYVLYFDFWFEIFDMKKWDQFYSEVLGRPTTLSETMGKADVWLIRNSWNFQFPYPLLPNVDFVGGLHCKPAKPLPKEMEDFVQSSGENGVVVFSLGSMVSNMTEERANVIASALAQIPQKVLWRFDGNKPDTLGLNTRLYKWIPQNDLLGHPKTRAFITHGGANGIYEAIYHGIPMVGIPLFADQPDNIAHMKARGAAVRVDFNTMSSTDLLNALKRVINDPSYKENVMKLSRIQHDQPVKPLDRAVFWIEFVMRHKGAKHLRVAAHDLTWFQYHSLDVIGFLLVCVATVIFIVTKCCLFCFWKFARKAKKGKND

[3] = test system: human intestinal microsomes (HIM)
UGT1A6 = molecular target: T3, UGT1A6 (Homo sapiens, UniProt P19224); experiment: Inhibition by aprepitant of UGT1A6; type: in vitro ADME; conditions: UGT1A6 enzyme, pH 7.5, probe 4-MU
T3 sequence (P19224 27-532): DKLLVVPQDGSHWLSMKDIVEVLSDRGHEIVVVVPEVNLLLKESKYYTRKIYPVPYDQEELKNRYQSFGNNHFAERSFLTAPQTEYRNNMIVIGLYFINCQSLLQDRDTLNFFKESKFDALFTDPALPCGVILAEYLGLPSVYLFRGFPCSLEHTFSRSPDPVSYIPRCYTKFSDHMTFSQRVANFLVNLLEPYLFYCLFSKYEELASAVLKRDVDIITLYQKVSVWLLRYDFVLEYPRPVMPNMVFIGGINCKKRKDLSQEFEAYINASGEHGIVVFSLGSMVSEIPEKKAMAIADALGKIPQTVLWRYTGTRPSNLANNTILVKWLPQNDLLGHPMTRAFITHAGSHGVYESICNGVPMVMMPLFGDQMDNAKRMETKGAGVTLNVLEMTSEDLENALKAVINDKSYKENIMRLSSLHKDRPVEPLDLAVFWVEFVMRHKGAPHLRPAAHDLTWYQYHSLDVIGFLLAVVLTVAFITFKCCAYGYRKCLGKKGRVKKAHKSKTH

UGT2B7 [4] = molecular target: T2, UGT2B7; experiment: Screening for aprepitant glucuronidation, UGT2B7 Supersomes; type: in vitro ADME; conditions: UGT2B7, 5 and 250 µM aprepitant
UGT2B4 = molecular target: T4, UGT2B4 (Homo sapiens, UniProt P06133); experiment: Screening for aprepitant glucuronidation, UGT2B4 Supersomes; type: in vitro ADME; conditions: UGT2B4, 5 and 250 µM aprepitant
T4 sequence (P06133 24-528): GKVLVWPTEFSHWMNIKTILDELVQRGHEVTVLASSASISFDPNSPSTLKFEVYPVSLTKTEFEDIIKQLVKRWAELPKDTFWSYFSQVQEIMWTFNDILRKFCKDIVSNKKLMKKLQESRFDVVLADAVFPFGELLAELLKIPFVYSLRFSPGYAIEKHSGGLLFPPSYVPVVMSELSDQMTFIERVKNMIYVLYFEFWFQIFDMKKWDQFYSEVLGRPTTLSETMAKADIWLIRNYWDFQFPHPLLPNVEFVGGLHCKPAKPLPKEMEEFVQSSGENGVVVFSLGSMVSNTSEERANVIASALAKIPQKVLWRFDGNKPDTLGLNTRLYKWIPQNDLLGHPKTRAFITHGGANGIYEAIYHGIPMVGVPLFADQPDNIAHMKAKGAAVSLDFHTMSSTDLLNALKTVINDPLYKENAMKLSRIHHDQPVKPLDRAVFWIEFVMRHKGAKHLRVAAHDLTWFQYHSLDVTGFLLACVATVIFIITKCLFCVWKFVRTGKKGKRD

UGT1A9 = molecular target: T5, UGT1A9 (Homo sapiens, UniProt O60656); experiment: Screening for aprepitant glucuronidation, UGT1A9 Supersomes; type: in vitro ADME; conditions: UGT1A9, 5 and 250 µM aprepitant
T5 sequence (O60656 26-530): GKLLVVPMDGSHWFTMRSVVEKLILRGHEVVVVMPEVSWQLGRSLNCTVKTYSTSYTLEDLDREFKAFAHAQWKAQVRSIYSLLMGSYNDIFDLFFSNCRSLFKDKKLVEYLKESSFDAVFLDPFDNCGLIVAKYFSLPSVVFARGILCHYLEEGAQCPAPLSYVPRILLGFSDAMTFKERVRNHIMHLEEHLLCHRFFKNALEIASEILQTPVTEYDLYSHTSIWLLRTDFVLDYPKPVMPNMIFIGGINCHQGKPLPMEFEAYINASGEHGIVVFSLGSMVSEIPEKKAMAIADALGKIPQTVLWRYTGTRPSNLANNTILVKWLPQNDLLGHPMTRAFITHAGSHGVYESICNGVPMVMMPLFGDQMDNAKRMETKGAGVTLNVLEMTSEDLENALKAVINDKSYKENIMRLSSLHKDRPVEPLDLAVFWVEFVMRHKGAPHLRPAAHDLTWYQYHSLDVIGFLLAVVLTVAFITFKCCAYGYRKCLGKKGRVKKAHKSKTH

Which results are given for `C[C@@H](O[C@H]1OCCN(Cc2n[nH]c(=O)[nH]2)[C@H]1c1ccc(F)cc1)c1cc(C(F)(F)F)cc(C(F)(F)F)c1` [aprepitant, Aprepitant]?
luminal concentration (Igut) ([1]; 40 mg oral capsule): 300 µM; luminal concentration (Igut) ([1]; 125 mg oral capsule): 936 µM; inhibition at 60 min, 10 µM (UGT1A4): 18%; Ki (UGT2B7 [2]): ~10 µM and 7.4 µM and 16.3 µM and 6.7 µM; Vmax ([3]; HIM, mean ± SE): 352 ± 8 fmol/min/mg protein; velocity of AP-G formation ([3]; human, 60 min, 250 µM, pH 7.5): 278.3 ± 1.9 fmol/min/mg protein; inhibition at 10 µM (UGT1A6): 19%; AP-G formation (UGT2B7 [4]): not detected; AP-G formation (UGT2B4): not detected; AP-G formation (UGT1A9): not detected
